Assay results taken from US20210045385A1, “PYRIDAZINONE-SUBSTITUTED KETOXIMES AS HERBICIDES” (FMC Corporation, priority 2018, published 2021).

What was measured:
Assay type in all cases: in vivo
[1] = system: barnyardgrass (Echinochloa crus-galli); experiment: Test C postemergence, visual plant response rating
Excerpt: (§1) Seeds of plant species selected from barnyardgrass (Echinochloa crus-galli), kochia (Bassia scoparia), ragweed (common ragweed, Ambrosia artemisiifolia), Italian ryegrass (Lolium mutiflorum), foxtail, giant (giant foxtail, Setaria faberi), foxtail, green (green foxtail, Setaria viridis), and pigweed (Amaranthus retroflexus) were planted into a blend of loam soil and sand and treated preemergence with a directed soil spray using test chemicals formulated in anon-phytotoxic solvent mixture which included a surfactant.
(§2) At the same time, plants selected from these weed species and also wheat (Triticum aestivum), corn (Zea mays), blackgrass (Alopecurus myosuroides), and galium (catchweed bedstraw, Galium aparine) were planted in pots containing the same blend of loam soil and sand and treated with post emergence applications of test chemicals formulated in the same manner. Plants ranged in height from 2 to 10 cm and were in the one- to two-leaf stage for the postemergence treatment. Treated plants and untreated controls were maintained in a greenhouse for approximately 10 d, after which time all treated plants were compared to untreated controls and visually evaluated for injury. Plant response ratings, summarized in Table C, are based on a 0 to 100 scale where 0 is no effect and 100 is complete control. A dash (-)response means no test result.

[2] = system: kochia (Bassia scoparia); experiment: Test C postemergence, visual plant response rating
Excerpt: as §1, §2

[3] = system: foxtail, giant (giant foxtail, Setaria faberi); experiment: Test C postemergence, visual plant response rating
Excerpt: as §1, §2

[4] = system: blackgrass (Alopecurus myosuroides); experiment: Test C postemergence, visual plant response rating
Excerpt: as §1, §2

[5] = system: ragweed (common ragweed, Ambrosia artemisiifolia); experiment: Test C postemergence, visual plant response rating
Excerpt: as §1, §2

[6] = system: Italian ryegrass (Lolium mutiflorum); experiment: Test C postemergence, visual plant response rating
Excerpt: as §1, §2

[7] = system: wheat (Triticum aestivum); experiment: Test C postemergence, visual plant response rating
Excerpt: as §1, §2

[8] = system: corn (Zea mays); experiment: Test C postemergence, visual plant response rating
Excerpt: as §1, §2

[9] = system: galium (catchweed bedstraw, Galium aparine); experiment: Test C postemergence, visual plant response rating
Excerpt: as §1, §2

[10] = system: pigweed (Amaranthus retroflexus); experiment: Test C postemergence, visual plant response rating
Excerpt: as §1, §2

[11] = system: barnyardgrass (Echinochloa crus-galli); experiment: Test C preemergence, visual plant response rating
How it was run: (§3)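 Visual injury on a 0 (no effect) to 100 (complete control) scale versus untreated controls, scored approximately 10 d after treatment under greenhouse conditions. Treatments used surfactant-containing non-phytotoxic solvent formulations, sprayed onto loam–sand soil preemergence or onto one- to two-leaf plants 2–10 cm tall postemergence.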

[12] = system: kochia (Bassia scoparia); experiment: Test C preemergence, visual plant response rating
How it was run: as §3

[13] = system: foxtail, giant (giant foxtail, Setaria faberi); experiment: Test C preemergence, visual plant response rating
How it was run: as §3

[14] = system: Italian ryegrass (Lolium mutiflorum); experiment: Test C preemergence, visual plant response rating
How it was run: as §3

[15] = system: pigweed (Amaranthus retroflexus); experiment: Test C preemergence, visual plant response rating
How it was run: as §3

[16] = system: barnyardgrass (Echinochloa crus-galli); experiment: Test D flooded paddy test, visual plant response rating; settings: 250 g ai/ha, scale 0 to 100 (0 no effect, 100 complete control), 13 to 15 d
Protocol: (§4) Plant species in the flooded paddy test selected from rice (Oryza sativa), sedge umbrella (small-flower umbrella sedge, Cyperus difformis) duck salad (Heteranthera limosa), and barnyardgrass (Echinochloa crus-galli) were grown to the 2-leaf stage for testing. At time of treatment, test pots were flooded to 3 cm above the soil surface, treated by application of test compounds directly to the paddy water, and then maintained at that water depth for the duration of the test. Treated plants and controls were maintained in a greenhouse for 13 to 15 d, after which time all species were compared to controls and visually evaluated. Plant response ratings, summarized in Table D, are based on a scale of 0 to 100 where 0 is no effect and 100 is complete control. A dash (-) response means no test result.

[17] = system: rice (Oryza sativa); experiment: as above; settings: 250 g ai/ha, scale 0 to 100 (0 no effect, 100 complete control), 13 to 15 d
Protocol: as §4

[18] = system: duck salad (Heteranthera limosa); experiment: as above; settings: 250 g ai/ha, scale 0 to 100 (0 no effect, 100 complete control), 13 to 15 d
Protocol: as §4

[19] = system: sedge umbrella (small-flower umbrella sedge, Cyperus difformis); experiment: as above; settings: 250 g ai/ha, scale 0 to 100 (0 no effect, 100 complete control), 13 to 15 d
Protocol: as §4

[20] = Test C, postemergence, 125 g ai/ha
[21] = Test C, 31 g ai/ha, 0 is no effect, 100 is complete control

SMILES	Barnyardgrass plant response rating (0 to 100 scale) ([1]; Postemergence, 31 g ai/ha)	Barnyardgrass plant response rating (0 to 100 scale) [1, 20]	Kochia plant response rating (0 to 100 scale) ([2]; Postemergence, 31 g ai/ha)	Kochia plant response rating (0 to 100 scale) [2, 20]	Foxtail, Giant plant response rating (0 to 100 scale) ([3]; Postemergence, 31 g ai/ha)	Foxtail, Giant plant response rating (0 to 100 scale) [3, 20]	Blackgrass plant response rating (0 to 100 scale) ([4]; Postemergence, 31 g ai/ha)	Blackgrass plant response rating (0 to 100 scale) [4, 20]	Ragweed plant response rating (0 to 100 scale) ([5]; Postemergence, 31 g ai/ha)	Ragweed plant response rating (0 to 100 scale) [5, 20]	Ryegrass, Italian plant response rating (0 to 100 scale) ([6]; Postemergence, 31 g ai/ha)	Ryegrass, Italian plant response rating (0 to 100 scale) [6, 20]	Wheat plant response rating (0 to 100 scale) ([7]; Postemergence, 31 g ai/ha)	Wheat plant response rating (0 to 100 scale) [7, 20]	Corn plant response rating (0 to 100 scale) ([8]; Postemergence, 31 g ai/ha)	Corn plant response rating (0 to 100 scale) [8, 20]	Galium plant response rating (0 to 100 scale) ([9]; Postemergence, 31 g ai/ha)	Galium plant response rating (0 to 100 scale) [9, 20]	Pigweed plant response rating (0 to 100 scale) ([10]; Postemergence, 31 g ai/ha)	Pigweed plant response rating (0 to 100 scale) [10, 20]	other results
C#CCO/N=C(\c1cc(Cl)cc(Cl)c1Cl)c1c(O)c(C)nn(C)c1=O [Compound 187]	30	70	40	70	50	80	0	0	90	100	70	100	0	50	0	20	80	100	20	70	Barnyardgrass plant response rating (0 to 100 scale) ([11]; 125 g ai/ha): 100; Barnyardgrass plant response rating (0 to 100 scale) [11, 21]: 70; Kochia plant response rating (0 to 100 scale) ([12]; 125 g ai/ha): 90; Kochia plant response rating (0 to 100 scale) [12, 21]: 0; Foxtail, Giant plant response rating (0 to 100 scale) ([13]; 125 g ai/ha): 100; Foxtail, Giant plant response rating (0 to 100 scale) [13, 21]: 80; Ryegrass, Italian plant response rating (0 to 100 scale) ([14]; 125 g ai/ha): 100; Ryegrass, Italian plant response rating (0 to 100 scale) [14, 21]: 40; Pigweed plant response rating (0 to 100 scale) ([15]; 125 g ai/ha): 90; Pigweed plant response rating (0 to 100 scale) [15, 21]: 60; Plant response rating, Barnyardgrass (Flood) [16]: 35; Plant response rating, Rice (Flood) [17]: 15; Plant response rating, Ducksalad (Flood) [18]: 75; Plant response rating, Sedge, Umbrella (Flood) [19]: 60
CON=C(c1cc(Cl)cc(Cl)c1)c1c(O)c(C)nn(C)c1=O [Compound 188]	30	60	80	100	40	90	40	30	60	100	80	100	10	50	0	30	100	100	80	90	Barnyardgrass plant response rating (0 to 100 scale) ([11]; 125 g ai/ha): 100; Barnyardgrass plant response rating (0 to 100 scale) [11, 21]: 30; Kochia plant response rating (0 to 100 scale) ([12]; 125 g ai/ha): 100; Kochia plant response rating (0 to 100 scale) [12, 21]: 10; Foxtail, Giant plant response rating (0 to 100 scale) ([13]; 125 g ai/ha): 100; Foxtail, Giant plant response rating (0 to 100 scale) [13, 21]: 90; Ryegrass, Italian plant response rating (0 to 100 scale) ([14]; 125 g ai/ha): 100; Ryegrass, Italian plant response rating (0 to 100 scale) [14, 21]: 80; Pigweed plant response rating (0 to 100 scale) ([15]; 125 g ai/ha): 90; Pigweed plant response rating (0 to 100 scale) [15, 21]: 70; Plant response rating, Barnyardgrass (Flood) [16]: 15; Plant response rating, Rice (Flood) [17]: 0; Plant response rating, Ducksalad (Flood) [18]: 70; Plant response rating, Sedge, Umbrella (Flood) [19]: 85
